This is an account of results in patent publication US4177269A, “Novel 17-esters of 17α-hydroxy gestogens, compositions containing such compounds, processes for their preparation and methods of treatment therewith” (Aktiebolaget Leo, priority 1976, dated 1979).

Molecules are shown by their SMILES.

For one experiment, the system named is Hepatome AH 130. Put plainly: Hepatome AH 130 tumour growth inhibition in rats. The note with it: one i.p. injection, result in words. The experiment is classed as in vivo, Sprague-Dawley rats. The source says: (§1) LD50 is the dose that causes a 50 percent lethality of the animals, and ED50 is the dose that causes a 50 percent reduction of tumour size.
(§2) The experimental design and the interpretation of the results are in accordance with the standards set by the CCNSC (Cancer Chemotherpy Reports, January 1959 and December 1962).
(§3) Experimental animals: Sprague-Dawley rats.
Tumour implant: 5 × 10^6 tumour cells i.p.
(§4) Therapy: One injection i.p. on the day following implanta-
(§5) Termination: The animals are killed on the 8th day.
(§6) Evaluation: Weights of tumours of test animals are compared
(§7) with those of control animals.

Experiment [1] deals with Walker carcinosarcoma 256. Briefly: Walker carcinosarcoma 256 tumour growth inhibition in rats. The experiment is classed as in vivo, Sprague-Dawley rats. The following applies: daily p.o. for 5 days, result in words.
From the text: as §1, §2
Walker carcinosarcoma 256.
as §3
Tumour implant: Tumour pieces with 2-4 mm diameter, sub-
Therapy: Daily p.o. administration for 5 days starting on
the day following implantation.
Termination: The animals are killed on the 9th day.
as §6, §7

Experiment [2] has as its system Ehrlich ascites tumour, ELD hyperdiploid. Briefly: Ehrlich ascites tumour, ELD hyperdiploid (46 chromosomes), growth inhibition in mice. The experiment is classed as in vivo, SPF NMRI mice. The following applies: one i.p. injection, result in words.
From the text: as §2
Ehrlich ascites tumour, ELD hyperdiploid
Experimental animals: SPF NMRI mice.
Tumour implant: 2 × 10^6 tumour cells i.p.
as §4, §5
Evaluation: Weight of tumours of test animals compared with
those of control animals.

In the case of `CC(=O)[C@@]1(OC(=O)COC(=O)Cc2ccc(N(CCCl)CCCl)cc2)CC[C@H]2[C@@H]3C=C(C)C4=CC(=O)CC[C@]4(C)[C@H]3CC[C@@]21C` [3:17, 17α-[4-(N,N-bis(2-chloroethyl)amino)phenylacetoxyacetoxy]-6-methylpregna-4,6-diene-3,20-dione], in the experiment with Hepatome AH 130, the antitumour activity entry is given as “exhibit antitumour activity”.
`CC(=O)[C@@]1(OC(=O)COC(=O)[C@@H](N)Cc2ccc(N(CCCl)CCCl)cc2)CC[C@H]2[C@@H]3CCC4=CC(=O)CC[C@]4(C)[C@H]3CC[C@@]21C` [3:12, 17-[(2S)-2-amino-3-(4-(N,N-bis(2-chloroethyl)amino)phenyl)propanoyloxyacetoxy]pregn-4-ene-3,20-dione]: the antitumour activity result in experiment [1] and in experiment [2] was “exhibit antitumour activity” in each case.
With `CC(=O)[C@@]1(OC(=O)CCCOC(=O)c2ccc(C)c(N(CCCl)CCCl)c2)CC[C@H]2[C@@H]3C=C(C)C4=CC(=O)CC[C@]4(C)[C@H]3CC[C@@]21C` [3:23, 17α-[4-(3-(N,N-bis(2-chloroethyl)amino)-4-methylbenzoyloxy)butanoyloxy]-6-methylpregna-4,6-diene-3,20-dione], the antitumour activity result in the experiment on Hepatome AH 130 is “exhibit antitumour activity”.
`CC(=O)[C@@]1(OC(=O)CCCOC(=O)[C@@H](N)Cc2ccc(N(CCCl)CCCl)cc2)CC[C@H]2[C@@H]3CCC4=CC(=O)CC[C@]4(C)[C@H]3CC[C@@]21C` [3:13, 17-[4-((2S)-2-amino-3-(4-(N,N-bis(2-chloroethyl)amino)phenyl)propanoyloxy)butanoyloxy]pregn-4-ene-3,20-dione]: the antitumour activity result with Hepatome AH 130 is “exhibit antitumour activity”.
As to `CC(=O)[C@@]1(OC(=O)CCCCNC(=O)c2ccc(C)c(N(CCBr)CCBr)c2)CC[C@H]2[C@@H]3C[C@H](F)C4=CC(=O)CC[C@]4(C)[C@H]3CC[C@@]21C` [6:3, 17α-/5-(3-(N,N-bis(2-bromoethyl)amino)-4-methylbenzoylamino)pentanoyloxy/-6α-fluoropregn-4-ene-3,20-dione], in the experiment with Hepatome AH 130, the antitumour activity result is given as “exhibit antitumour activity”.
In the case of `CC(=O)[C@@]1(OC(=O)COC(=O)[C@@H](N)Cc2ccccc2N(CCCl)CCCl)CC[C@H]2[C@@H]3CCC4=CC(=O)CC[C@]4(C)[C@H]3CC[C@@]21C` [3:20, 17-[(2S)-2-amino-3-(2-(N,N-bis(2-chloroethyl)amino)phenyl)propanoyloxyacetoxy]pregn-4-ene-3,20-dione], the antitumour activity entry in the experiment on Hepatome AH 130 was “exhibit antitumour activity”.
For the compound `CC(=O)[C@@]1(OC(=O)CCCOC(=O)CCCc2ccc(N(CCCl)CCCl)cc2)CC[C@H]2[C@@H]3C[C@H](C)C4=CC(=O)CC[C@]4(C)[C@H]3CC[C@@]21C` [3:21, 17α-[4-(4-(4-(N,N-bis(2-chloroethyl)amino)phenyl)butanoyloxy)butanoyloxy]-6α-methylpregn-4-ene-3,20-dione], the antitumour activity entry in experiment [1] was “exhibit antitumour activity”.
Take `CC(=O)[C@@]1(OC(=O)CCCCOC(=O)C(N)Cc2ccc(N(CCCl)CCCl)cc2)CC[C@H]2[C@@H]3C[C@H](F)C4=CC(=O)CC[C@]4(C)[C@H]3CC[C@@]21C` (stereo partly drawn) [3:10, 17α-/5-(2-amino-3-(4-(N,N-bis(2-chloroethyl)amino)phenyl)propanoyloxy)pentanoyloxy/-6α-fluoropregn-4-ene-3,20-dione]: the antitumour activity entry in the experiment on Hepatome AH 130 was “exhibit antitumour activity”.
As for `CC(=O)[C@@]1(OC(=O)COC(=O)[C@@H](N)Cc2cccc(N(CCCl)CCCl)c2)CC[C@H]2[C@@H]3CCC4=CC(=O)CC[C@]4(C)[C@H]3CC[C@@]21C` [3:19, 17-[(2S)-2-amino-3-(3-(N,N-bis(2-chloroethyl)amino)phenyl)propanoyloxyacetoxy]pregn-4-ene-3,20-dione], the antitumour activity result with Hepatome AH 130 is “exhibit antitumour activity”.
Consider `CC(=O)[C@@]1(OC(=O)COC(=O)c2ccc(Cl)c(N(CCCl)CCCl)c2)CC[C@H]2[C@@H]3C[C@H](F)C4=CC(=O)CC[C@]4(C)[C@H]3CC[C@@]21C` [3:25, 17α-[4-chloro-3-(N,N-bis(2-chloroethyl)amino)benzoyloxyacetoxy]-6α-fluoropregn-4-ene-3,20-dione], for which the antitumour activity result with Hepatome AH 130 is reported as “exhibit antitumour activity”.
Consider `CC(=O)[C@@]1(OC(=O)CCCNC(=O)c2ccc(C)c(N(CCCl)CCCl)c2)CC[C@H]2[C@@H]3CCC4=CC(=O)CC[C@]4(C)[C@H]3CC[C@@]21C` [6:4], for which the antitumour activity result (in experiment [2]; in the experiment on Hepatome AH 130) was “exhibit antitumour activity” in each case.
In the case of `CC(=O)[C@@]1(OC(=O)C(C)OC(=O)CCCCc2ccc(N(CCCl)CCCl)cc2)CC[C@H]2[C@@H]3C=C(Cl)C4=CC(=O)CC[C@]4(C)[C@H]3CC[C@@]21C` (stereo partly drawn) [3:8, 6-chloro-17α-/2-(5-(4-(N,N-bis(2-chloroethyl)amino)phenyl)pentanoyloxy)propanoyloxy/pregna-4,6-diene-3,20-dione], the antitumour activity result (in experiment [2]; in the experiment with Hepatome AH 130) was “exhibit antitumour activity” throughout.
Regarding `CC(=O)[C@@]1(OC(=O)C(C)OC(=O)/C=C/c2ccccc2N(CCCl)CCCl)CC[C@H]2[C@@H]3C=C(C)C4=CC(=O)CC[C@]4(C)[C@H]3CC[C@@]21C` (stereo partly drawn) [3:9, 17α-/2-((2E)-3-(2-(N,N-bis(2-chloroethyl)amino)phenyl)propenoyloxy)propanoyloxy/-6-methylpregna-4,6-diene-3,20-dione], the antitumour activity result (in experiment [2]; in the experiment with Hepatome AH 130) was “exhibit antitumour activity” in each case.
Take `CC(=O)[C@@]1(OC(=O)CCCOC(=O)CCCc2ccc(N(CCCl)CCCl)cc2)CC[C@H]2[C@@H]3C=C(Cl)C4=CC(=O)[C@@H]5C[C@@H]5[C@]4(C)[C@H]3CC[C@@]21C` [3:24, 6-chloro-17α-[4-(4-(4-(N,N-bis(2-chloroethyl)amino)phenyl)butanoyloxy)butanoyloxy]-1α,2α-methylenepregna-4,6-diene-3,20-dione]: the antitumour activity result in the experiment on Hepatome AH 130 is “exhibit antitumour activity”.
In the case of `CC(=O)[C@@]1(OC(=O)COC(=O)c2ccc(C)c(N(CCCl)CCCl)c2)CC[C@H]2[C@@H]3C=C(Cl)C4=CC(=O)CC[C@]4(C)[C@H]3CC[C@@]21C` [3:18, 6-chloro-17α-[3-(N,N-bis(2-chloroethyl)amino)-4-methylbenzoyloxyacetoxy]pregna-4,6-diene-3,20-dione], the antitumour activity entry in experiment [1] is “exhibit antitumour activity”.
As to `CC(=O)N[C@@H](Cc1ccc(N(CCCl)CCCl)cc1)C(=O)OCCCC(=O)O[C@]1(C(C)=O)CC[C@H]2[C@@H]3CCC4=CC(=O)CC[C@]4(C)[C@H]3CC[C@@]21C` [3:15, 17-[4-((2S)-2-acetamido-3-(4-(N,N-bis(2-chloroethyl)amino)phenyl)propanoyloxy)butanoyloxy]pregn-4-ene-3,20-dione], in the experiment on Hepatome AH 130, the antitumour activity result was “exhibit antitumour activity”.
`CC(=O)[C@@]1(OC(=O)CNC(=O)c2ccc(C)c(N(CC(C)Cl)CC(C)Cl)c2)CC[C@H]2[C@@H]3C[C@H](C)C4=CC(=O)CC[C@]4(C)[C@H]3CC[C@@]21C` (stereo partly drawn) [4:2, 17α-/3-(N,N-bis(2-chloropropyl)amino)-4-methylbenzoylaminoacetoxy/-6α-methylpregn-4-ene-3,20-dione]: in the experiment on Hepatome AH 130, the antitumour activity entry is “exhibit antitumour activity”.
With `CC(=O)[C@@]1(OC(=O)CCCNC(=O)C(C)(C)c2ccc(N(CCCl)CCCl)cc2)CC[C@H]2[C@@H]3CCC4=CC(=O)CC[C@@H]4[C@H]3CC[C@@]21C` [6:2, 17α-/4-(2-(4-(N,N-bis(2-chloroethyl)amino)phenyl)-2-methylpropanoylamino)butyanoyloxy/-19-norpregn-4-ene-3,20-dione], in the experiment with Hepatome AH 130, the antitumour activity entry is given as “exhibit antitumour activity”.
`CC(=O)[C@@]1(OC(=O)COC(=O)Oc2ccc(N(CCCl)CCCl)cc2)[C@H](C)C[C@H]2[C@@H]3C=C(Cl)C4=CC(=O)CC[C@]4(C)[C@H]3CC[C@@]21C` [5:3, 6-chloro-17α-/4-(N,N-bis(2-chloroethyl)amino)phenoxycarbonyloxyacetoxy/-16α-methylpregna-4,6-diene-3,20-dione]: the antitumour activity result in the experiment on Hepatome AH 130 is “exhibit antitumour activity”.
Regarding `CC(=O)[C@@]1(OC(=O)COC(=O)Oc2ccc(N(CCCl)CCCl)cc2)CC[C@H]2[C@@H]3CCC4=CC(=O)CC[C@]4(C)[C@H]3CC[C@@]21C` [5:4, 17α-[4-(N,N-bis(2-chloroethyl)amino)phenoxycarbonyloxyacetoxy]pregn-4-ene-3,20-dione], the antitumour activity result (in experiment [2]; with Hepatome AH 130) was “exhibit antitumour activity” each time.
With `CC(=O)[C@@]1(OC(=O)COC(=O)CCOc2ccc(N(CCCl)CCCl)cc2)CC[C@H]2[C@@H]3CCC4=CC(=O)CC[C@]4(C)[C@H]3CC[C@@]21C` [3:26, 17α-[3-(4-(N,N-bis(2-chloroethyl)amino)phenoxy)propionyloxyacetoxy]pregn-4-ene-3,20-dione], the antitumour activity result in the experiment on Hepatome AH 130 is on record as “exhibit antitumour activity”.
For `C=C1C[C@H]2[C@@H]3C=C(Cl)C4=CC(=O)CC[C@]4(C)[C@H]3CC[C@]2(C)[C@@]1(OC(=O)COC(=O)Nc1ccc(N(CCCl)CCCl)cc1OC)C(C)=O` [5:2, 6-chloro-17α-/4-(N,N-bis(2-chloroethyl)amino)-2-methoxyphenylcarbamoyloxyacetoxy/-16-methylenepregna-4,6-diene-3,20-dione], the antitumour activity result with Hepatome AH 130 was “exhibit antitumour activity”.
